From patent US9222059B2, “Cleaning formulations with improved surfactant solubility and methods of production and use thereof” (The Sun Products Corporation, priority 2011, dated 2015) come the findings set out here.

The nature of series [1]: Liquid stability / solubility of high-concentration EMES in water with C8 amine oxide. As to conditions: 25% EMES, about 2% C8 AO; FIG. 6b.
Method: Similar approaches were taken for examining the impact of increasing EMES concentration on liquid stability (i.e., examining the solubility of the surfactant in solution at a given concentration), and the ability of hydrotropes to improve EMES solubility. Specifically, samples of EMES in water were prepared at different concentrations and observed as described above for any evidence of instability or poor solubility.
The nature of series [2]: Storage stability (Pass/Fail) of base liquid detergent formulation with 9.5% EMES plus candidate hydrotrope. More on the design: key: a sample was said to “Pass” if it remained a clear isotropic liquid at the indicated challenge temperature; a sample was said to “Fail” if it showed any of the above-described evidence of instability or insolubility. Format: physicochemical.

Series [3] is described as follows: Rheology, 40 mm circular plate rheometer (flowability/pumpability). As to conditions: agent at about 5% to about 8%; results not shown. Format: physicochemical. The procedure:
A solution of 35% EMES+7% C8 amine oxide in water was prepared as described in the foregoing examples. […] The rheology of the solution was then tested using a 40 mm circular plate rheometer. A conditioning step was performed which brought the plate to 25° C., and a pre-shear step was carried out at 0.7958 Pa for 30 sec, and then the device was equilibrated until it reached 0 velocity. Then the main continuous ramp step began on the solution, which ran for 1 minute, and the shear stress was increased from 0.1 to 250 Pa. A total of 15 data points were collected, and the device remained at 25° C. the entire time. […] Solutions of about 40% or more EMES, however, required a slightly higher amine oxide content to remain flowable and pumpable, but the shear stress necessary was inordinately high. Therefore, for applications in which it may be desirable to pump the surfactant formulation, it is preferable to use 35% or lower EMES in the formulation.
We also evaluated whether or not inclusion of one or more additional components in the solution would improve the pumpability of high concentration EMES formulations. Specifically, ethanol or glycerine at about 5% to about 8% were included in formulations containing 35% EMES/7% C8 amine oxide.

Series [4] in a line: Interfacial surface tension / CMC (detergency), pendant drop method, Kruss DSA100. Conditions: 0 to 250 ppm in water; FIG. 1. The series is classed as physicochemical. The text has this: First, we addressed the fact that MES has typically been thought of as a component that can show poor detergency. A surfactant's cleaning performance (i.e., detergency) can be measured directly by an examination of its interfacial tension (IFT) as a function of its critical micelle concentration (CMC, the concentration where the surfactant's monomers arrange themselves in a spherical shape so that their hydrophobic tails can trap oil). We therefore wanted to examine the suitability of various surfactants, including various types of MES, for use in reducing surface tension (i.e., detergency) over various surfactant concentrations. Surfactants were titrated in water at concentrations from 0 to 250 ppm (which is typical of “in use” conditions for surfactant formulations in household laundry methods), and the interfacial surface tension of these solutions was measured as a function of concentration using the pendant drop method on a Kruss DSA100 drop shape analyzer. […] As one of ordinary skill will readily understand, other tensiometric methods of determining interfacial surface tension can also be used, for example using a Du Nouy ring, drop volume, or bubble tensiometer; suitable instrumentation and methods for measuring surface tension using such approaches are well-known in the art. […]

The mark [5] stands for this setting: material 2.00 % w/v in base detergent with 9.5% EMES, 1 week.
Where [6] appears, read: material 2.00 % w/v in base detergent with 9.5% EMES, 3 cycles, -20° C.
Where [7] appears, read: material 2.00 % w/v in base detergent with 9.5% EMES, 12 weeks.
[8] abbreviates: material 2.00 % w/v in base detergent with 9.5% EMES, 52 weeks.

Read-outs that look alike come from different tables or passages of the source.

As for `CCCCCCCC[N+](C)(C)[O-]` [C8 AO, octyl dimethyl amine oxide], the “appearance of EMES solution with hydrotrope” value in series [1] is listed as “nearly clear, isotropic solution”.

Turning to `CCO` [Ethanol, Ethyl alcohol, reference compound], the “125° F. storage” value in series [2] (setting [5]) was “Pass”. The Freeze/Thaw storage entry in series [2] (setting [6]) is on record as “Pass”. Also, in series [2] (setting [7]), the “40° F. storage” value was “Fail” and the “105° F. storage” value is on record as “Pass”. In series [2] (setting [8]), the “Room Temp. storage” value is listed as “Pass”. For the same compound, the “flowability of 35% EMES/7% C8 amine oxide with added agent” value in series [3] was “worse”.

Turning to `CCCCCCCCCC[N+](C)(C)[O-]` [Genamino x DC40, Decyl dimethyl amine oxide], in series [2], the “40° F. storage” value is listed as “Fail”, the “105° F. storage” value is listed as “Pass” and the “125° F. storage” value is “Pass”. Further, the Freeze/Thaw storage result in series [2] (setting [6]) is listed as “Pass”. Also, the “Room Temp. storage” value in series [2] (setting [8]) is “Pass”.

In the case of `CC(O)CO` (stereo not shown) [Propylene glycol, Propylene glycol (1,2-propane diol), reference compound], the “125° F. storage” value in series [2] (setting [5]) is on record as “Pass”. Further, in series [2] (setting [6]), the Freeze/Thaw storage entry is given as “Pass”. For the same compound, in series [2] (setting [7]), the “40° F. storage” value is “Fail” and the “105° F. storage” value is “Pass”. Further, the “Room Temp. storage” value in series [2] (setting [8]) is “Pass”.

Take `CCCCCCCC[N+](C)(C)[O-]` [Synthetic C8 3853-01, Octyl dimethyl amine oxide]: in series [2], the “40° F. storage” value is listed as “Pass”, the “105° F. storage” value is given as “Pass” and the “125° F. storage” value is on record as “Pass”. Moreover, the Freeze/Thaw storage entry in series [2] (setting [6]) is on record as “Pass”. Also, in series [2] (setting [8]), the “Room Temp. storage” value was “Pass”.

As to `C[N+](C)(C)CC(=O)O` [Tomamine LH, Betaine], in series [2], the “40° F. storage” value is “Fail”, the “105° F. storage” value is given as “Pass” and the “125° F. storage” value is listed as “Pass”. Further, the Freeze/Thaw storage entry in series [2] (setting [6]) was “Pass”. The “Room Temp. storage” value in series [2] (setting [8]) was “Pass”.

With `CCCCCCCCCCCC(=O)OCCOCCOCCOCCOCCOCCOCCOCCOCCOCCOCCOCCOCCOCCOCCOCCOCCOCCOCCOCCOCC(OCCOCCOCCOCCOCCOCCOCCOCCOCCOCCOCCOCCOCCOCCOCCOCCOCCOCCOCCOCCO)C1OCC(OCCOCCOCCOCCOCCOCCOCCOCCOCCOCCOCCOCCOCCOCCOCCOCCOCCOCCOCCOCCO)C1OCCOCCOCCOCCOCCOCCOCCOCCOCCOCCOCCOCCOCCOCCOCCOCCOCCOCCOCCOCCO` (stereo not shown) [Tween 20, Polysorbate 20], in series [2], the “40° F. storage” value was “Fail”, the “105° F. storage” value is recorded as “Pass”, the “125° F. storage” value is reported as “Pass” and the Freeze/Thaw storage result is recorded as “Pass”. The “Room Temp. storage” value in series [2] is recorded as “Pass”.

As for Akkylglucoside [AG6206], in series [2], the “40° F. storage” value is reported as “Fail”, the “105° F. storage” value is given as “Pass” and the “125° F. storage” value is on record as “Pass”. Also, the Freeze/Thaw storage entry in series [2] (setting [6]) is “Pass”. In addition, the “Room Temp. storage” value in series [2] (setting [8]) is listed as “Pass”.

“Glycerine (propane 1,2,3-triol) [reference compound]”: in series [2], the “40° F. storage” value is on record as “Fail”, the “105° F. storage” value is “Pass”, the “125° F. storage” value is recorded as “Pass” and the Freeze/Thaw storage entry is “Pass”. Also, the “Room Temp. storage” value in series [2] is given as “Pass”. In addition, the “flowability of 35% EMES/7% C8 amine oxide with added agent” value in series [3] is “worse”.

On to Lauramine oxide [Ammonyx LO], for which, in series [2], the “40° F. storage” value is given as “Fail”, the “105° F. storage” value is “Pass” and the “125° F. storage” value is reported as “Pass”. For the same compound, the Freeze/Thaw storage result in series [2] (setting [6]) is given as “Pass”. For the same compound, the “Room Temp. storage” value in series [2] (setting [8]) is on record as “Pass”.

Take Methyl ester sulfonate [MES]: in series [4], the “critical micelle concentration (CMC), compared with LAS, SLES” value is “reaches its CMC the quickest” and the “interfacial tension (IFT), compared with LAS, SLES” value was “lowest IFT at each concentration measured”.

As for “Sodium xylene sulfonate [reference compound]”, in series [2], the “40° F. storage” value is given as “Fail”, the “105° F. storage” value was “Pass”, the “125° F. storage” value is listed as “Pass” and the Freeze/Thaw storage entry is given as “Pass”. Also, the “Room Temp. storage” value in series [2] was “Pass”.
